# From patent US11413278B2, “Compounds and methods for promoting stress resistance” (priority 2015, dated 2022)
# Entries after “also recorded” stand apart in the source; their conditions may differ. Read-outs that look alike come from different tables or passages of the source.
# Columns and labels:
# WI-38 cells [1] = conditions: for PI cell-death imaging without H2O2 (indicating potential toxicity): Assay 8(k), without H2O2, at 10 uM; for PI-positive dead cells under normal conditions: WI-38, no H2O2, control 0.4±0.2%; for Percentage of propidium iodide-positive dead cells (no H2O2 stress treatment), at 10 uM: negative control 0.41% ± 0.23%
# Experimental: WI-38 cells were seeded on 384-well plates for 24 hrs and then incubated with small molecules for 24 hrs. […] Images were collected on an INCell Analyzer 2000 (GE) and analyzed with the Developer software.
# FOXO3 = FOXO3 siRNA knockdown: dependency for H2O2-resistance; type: cell-based, human; conditions: for FOXO3-dependency for H2O2-resistance (experiment 3): with & without H2O2, FOXO3 knockdown in WI-38 cells; for Requirement of FOXO3 to promote H2O2-resistance: FOXO3 siRNA, at least 2 of 3 independent experiments
# Experimental: For qPCR analysis, WI-38 cells were treated with small molecules (at 10 μM) (biological quadruplicates) for 24 hrs and processed for RNA isolation and reverse transcription (RT) with the Cells-to-Ct Kit (Life Technologies), following manufacturer's instructions. RT products were diluted with H2O and used for qPCR analysis on an ABI 7300 system (Life Technologies) (technical triplicates). Relative expression levels of target genes were normalized to the genes B2M, PPIA and GAPDH. To knock down the expression of FOXO3 or NRF2, WI-38 cells were transfected, using the RNAiMAX reagents (Life Technologies), with siRNA oligos (at 10 nM final concentration, 10 ml culture medium) for FOXO3 (Life Technologies) or NRF2 (Integrated DNA Technologies) on 10-cm petri dishes for 36 hrs, and then detached and aliquoted onto 96-well (for qPCR analysis) or 384-well plates (for H2O2-stress treatment). ˜24 hrs later, small molecules were introduced and incubated with cells for 24 hrs. Cells were then either processed with the Cells-to-Ct Kit to prepare RT products for qPCR analysis or subjected to H2O2 (700 μM) for 3 hrs and assayed for viability. The knockdown efficiency of FOXO3 or NRF2 was checked at 36 hrs post-transfection and at the end as well. […]
# Applicants used siRNA to knock down FOXO3 expression by ˜70% in an attempt to identify whether the activation of these genes depends on activity of FOXO3 and/or NRF2. […] We used siRNA to knock down FOXO3 expression by ˜60% to 70% (FIG. 3; see data in Table 6). […] (Given the caveat that FOXO3 was not fully knocked down, partial dependency was scored when the H2O2-resistance capacity was reduced by at least 25% but less than 50% upon siRNA knockdown). At least for Gr-7A and Gr-7C, which are structurally related, the observed FOXO3-dependency for H2O2-resistance is consistent with their strong effects to induce FOXO3 target genes (Tables 1a-1f, Table 6, & Table 15), including SOD2 and GADD45A.
# C. elegans = type: in vivo, Caenorhabditis elegans
# Experimental: The worms were treated with the small molecules in liquid, with H2O2 (500 μM final concentration) added on day 4 of adulthood, and scored for viability everyday
# FUdR was used to block progeny production. The molecules were analyzed in 96-well plates, with 4 wells for each small molecule. Multiple control wells with DMSO (0.2% final concentration) were included. […] Day 1 adults were transferred onto mini-plates, seeded with OP50 bacteria (UV-irradiated, kanamycin-treated) and supplemented with small molecules (˜60 μM final concentration, 0.2% DMSO). Worms were scored every other day. Cumulative survival was analyzed using the STATA software (log-rank test). […] The worms were treated with the small molecules in liquid, with H2O2 (500 μM final concentration) added on day 4 of adulthood, and scored for viability every day.
# WI-38 cells [2] = assay: CdCl2 (cadmium) resistance assay; type: cell-based, human; conditions: for fold induction at 10 µM: Homo sapiens, 12 h, normalized ATP measurement; for Assay 4: H2O2- & Cd-resistant / Assay 2: Cadmium-resistant: YES/NO; for Assay 2: Cadmium-resistant: * indicates partial
# How it was run: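 WI-38 cells were given compounds at five final concentrations (0.25–20 μM) in triplicate, followed by cadmium or MMS for 12 h. For MMS, medium was switched from OptiMEM+10% FBS to serum-free DMEM+2% BSA when compounds were added, 24 h before stressor. Two independent assays were run, analysed by global variance t-test.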
# [3] = Exp. 1, WI-38 cells, read-out: Exp. 1, under Cd2Cl2 stress treatment, at 10 uM (fold change)
# [4] = Exp. 2, WI-38 cells, read-out: Exp. 2, under Cd2Cl2 stress treatment, at 10 uM (fold change)
# [5] = WI-38 cells, 10 μM, both stressors
# [6] = score in summary of 38 core set hits
# [7] = 10 uM, YES = resistance reduced by at least 50%, partial = 25% to 50%
Structure (SMILES),PI cell-death imaging without H2O2 (indicating potential toxicity) (WI-38 cells [1]),PI-positive dead cells under normal conditions (WI-38 cells [1]),"Percentage of propidium iodide-positive dead cells (no H2O2 stress treatment), at 10 uM (WI-38 cells [1])",I = FOXO3-dependency for H2O2-resistance (FOXO3; score),I = FOXO3-dependency for H2O2-resistance (FOXO3; summary score),L = H2O2-resistance in worms (C. elegans; in vivo),N = H2O2-resistance in woms (C. elegans; in vivo),CdCl2-resistant (WI-38 cells [2]),H2O2- & CdCl2-resistant (WI-38 cells [2]),fold induction at 10 µM (WI-38 cells [2]; [3]),fold induction at 10 µM (WI-38 cells [2]; [4]),"CdCl2-resistant (WI-38 cells [2]; WI-38 cells, 10 μM)",H2O2- & CdCl2-resistant (WI-38 cells [2]; [5]),Assay 4: H2O2- & Cd-resistant (WI-38 cells [2]),Assay 2: Cadmium-resistant (WI-38 cells [2]),A = Cadmium resistant (WI-38 cells [2]; [6]),A = Cadmium resistant (WI-38 cells [2]; summary score),C = H2O2- & Cd-resistant (WI-38 cells [2]; summary score),"FOXO3-dependency for H2O2-resistance, at 10 uM (experiment 3) - with & without H2O2 (FOXO3; 10 uM)",FOXO3-dependency for H2O2-resistance (experiment 3) (FOXO3; [7]),also measured
O=C(Nc1cc(C(F)(F)F)ccc1Cl)c1ccc([N+](=O)[O-])o1 [Gr-1B],YES,1.0%±0.3%,"1.03% ± 0.34%,",0,0,0,0,YES,YES,2.01,1.72,YES,YES,YES,YES,1,1,1,,,
CCCN1C/C(=C\c2ccc(F)cc2)C(=O)/C(=C/c2ccc(F)cc2)C1 [O15],YES,3.8%±0.7%,"3.76% ± 0.68%,",1,1,1,1,,,0.18,0.57,,,YES,YES,0,1,1,YES,YES,"FOXO3-dependency for H2O2-resistance, at 10 uM - with H2O2, 1st experiment (FOXO3; 10 uM, experiment 1 (1st), with H2O2): 1st, YES;; FOXO3-dependency for H2O2-resistance, 1st experiment (FOXO3; 10 uM, with H2O2, FOXO3 knockdown in WI-38 cells, YES = resistance reduced by at least 50%, partial = 25% to 50%): YES;; Assay 16: FOXO3-dependency for H2O2-resistance (FOXO3; 10 uM, YES/NO): YES; Requirement of FOXO3 to promote H2O2-resistance (FOXO3): required FOXO3; H2O2-resistance assay, 1st experiment (C. elegans; in vivo): YES;; H2O2-resistance assay, 2nd experiment (C. elegans; in vivo): YES.; Protection of C. elegans from hydrogen peroxide (C. elegans; in vivo): protected worms from hydrogen peroxide; also recorded: protected C. elegans from hydrogen peroxide; also recorded: could protect C. elegans from hydrogen peroxide"
COc1ccc(C(=O)/C=C/c2ccccc2Br)c(OC)c1 [Gr-4B],,,"0.36% ± 0.13%,",0,0,,,YES,YES,2,1.52,YES,YES,YES,YES,1,1,1,,,N = H2O2-resistance in woms (C. elegans; score): 0; L = H2O2-resistance in worms (C. elegans; summary score): 0
COc1cccc(/C=C2\CN(C)C/C(=C\c3cccc(OC)c3OC)C2=O)c1OC [O23],YES,2.6%±1.4%,"2.61% ± 1.37%,",0,0,0,0,,,0.69,0.64,,,YES,YES,0,1,1,YES,YES,"H2O2-resistance assay, 1st experiment (C. elegans; in vivo): YES;"
O=C(Nc1nc(C23CC4CC(CC(C4)C2)C3)cs1)C(c1ccccc1)c1ccccc1 [O10],,,"0.54% ± 0.16%,",0,0,0,0,YES,YES,2.73,2,YES,YES,YES,YES,1,1,1,,,
Cc1cc(C)c(C(=O)/C=C/c2ccccc2F)c(O)n1 [O18],,,"0.36% ± 0.16%,",0,0,0,0,,,1.5,1.24,,,YES,YES,0,1,1,YES,YES,
O=[N+]([O-])c1ccccc1S(=O)(=O)Nc1cccc2cccnc12 [Gr-3A],,,"0.54% ± 0.16%,",0,0,0,0,YES,YES,1.93,1.64,YES,YES,YES,YES,1,1,1,,,
O=C(/C(=C/c1ccc(Cl)cc1)c1nc2ccccc2[nH]1)c1ccccc1 [Gr-4D],,,"0.42% ± 0.15%,",0,0,0,0,YES,YES,2.1,2.88,YES,YES,YES,YES,1,1,1,Partial,Partial,"Requirement of FOXO3 to promote H2O2-resistance (FOXO3): not FOXO3; H2O2-resistance assay, 1st experiment (C. elegans; in vivo): YES;"
